Measured values reported in PubChem BioAssay (NCI).
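Compound exposure: 48 hours, 5 concentrations, 96-well plates. The concentration for full growth arrest is given as TGI.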

Columns and labels:
Test in all cases: NCI-60 cell line screen, 48 h
RPMI-8226 leukemia = test system: RPMI-8226 leukemia
LXFL 529 NSCLC = test system: LXFL 529 NSCLC
HCT-116 colon = test system: HCT-116 colon
MALME-3M melanoma = test system: MALME-3M melanoma
UACC-62 melanoma = test system: UACC-62 melanoma
EKVX NSCLC = test system: EKVX NSCLC
OVCAR-4 ovarian = test system: OVCAR-4 ovarian
K-562 leukemia = test system: K-562 leukemia
SK-MEL-2 melanoma = test system: SK-MEL-2 melanoma
SNB-19 CNS = test system: SNB-19 CNS
CCRF-CEM leukemia = test system: CCRF-CEM leukemia
TK-10 renal = test system: TK-10 renal
SNB-78 CNS = test system: SNB-78 CNS
UACC-257 melanoma = test system: UACC-257 melanoma
A498 renal = test system: A498 renal
SF-539 CNS = test system: SF-539 CNS
SK-MEL-28 melanoma = test system: SK-MEL-28 melanoma
NCI-H23 lung = test system: NCI-H23 lung
KM20L2 colon = test system: KM20L2 colon
DMS 273 small cell lung = test system: DMS 273 small cell lung
M19-MEL melanoma = test system: M19-MEL melanoma
NCI-H226 lung = test system: NCI-H226 lung
UO-31 renal = test system: UO-31 renal
DLD-1 colon = test system: DLD-1 colon
HOP-18 NSCLC = test system: HOP-18 NSCLC
SK-MEL-5 melanoma = test system: SK-MEL-5 melanoma
U251 CNS = test system: U251 CNS
ACHN renal = test system: ACHN renal
SK-OV-3 ovarian = test system: SK-OV-3 ovarian
NCI-H522 lung = test system: NCI-H522 lung
786-0 renal = test system: 786-0 renal
OVCAR-5 ovarian = test system: OVCAR-5 ovarian
SF-295 CNS = test system: SF-295 CNS
HL-60(TB) leukemia = test system: HL-60(TB) leukemia
M14 melanoma = test system: M14 melanoma
SNB-75 CNS = test system: SNB-75 CNS
A549 NSCLC = test system: A549 NSCLC
CAKI-1 renal = test system: CAKI-1 renal
OVCAR-8 ovarian = test system: OVCAR-8 ovarian
SW-620 colon = test system: SW-620 colon
SN12C renal = test system: SN12C renal
RXF-631 renal = test system: RXF-631 renal
IGROV1 ovarian = test system: IGROV1 ovarian
SF-268 CNS = test system: SF-268 CNS
HCC-2998 colon = test system: HCC-2998 colon
MOLT-4 leukemia = test system: MOLT-4 leukemia
DMS 114 small cell lung = test system: DMS 114 small cell lung
KM12 colon = test system: KM12 colon
LOX IMVI melanoma = test system: LOX IMVI melanoma
HT29 colon = test system: HT29 colon
HCT-15 colon = test system: HCT-15 colon
SR leukemia = test system: SR leukemia
HOP-62 NSCLC = test system: HOP-62 NSCLC
XF 498 CNS = test system: XF 498 CNS
NCI-H460 lung = test system: NCI-H460 lung
HOP-92 NSCLC = test system: HOP-92 NSCLC
RXF 393 renal = test system: RXF 393 renal
COLO 205 colon = test system: COLO 205 colon
OVCAR-3 ovarian = test system: OVCAR-3 ovarian

CN(C)c1nc(=Nc2cccc(Cl)c2)ss1
TGI (RPMI-8226 leukemia): 17.5 µM
TGI (LXFL 529 NSCLC): 21.7 µM
TGI (HCT-116 colon): 24.2 µM
TGI (MALME-3M melanoma): 27.1 µM
TGI (UACC-62 melanoma): 23.4 µM
TGI (EKVX NSCLC): 56.5 µM
TGI (OVCAR-4 ovarian): 29.8 µM
TGI (K-562 leukemia): 41.8 µM
TGI (SK-MEL-2 melanoma): 42.1 µM
TGI (SNB-19 CNS): > 100 µM
TGI (CCRF-CEM leukemia): 22.1 µM
TGI (TK-10 renal): > 100 µM
TGI (SNB-78 CNS): 34 µM
TGI (UACC-257 melanoma): 36 µM
TGI (A498 renal): 93 µM
TGI (SF-539 CNS): 32.8 µM
TGI (SK-MEL-28 melanoma): 25.8 µM
TGI (NCI-H23 lung): > 100 µM
TGI (KM20L2 colon): 35.5 µM
TGI (DMS 273 small cell lung): 29.9 µM
TGI (M19-MEL melanoma): 32.6 µM
TGI (NCI-H226 lung): > 100 µM
TGI (UO-31 renal): 69.8 µM
TGI (DLD-1 colon): 24.8 µM
TGI (HOP-18 NSCLC): > 100 µM
TGI (SK-MEL-5 melanoma): > 100 µM
TGI (U251 CNS): 24.1 µM
TGI (ACHN renal): 37.2 µM
TGI (SK-OV-3 ovarian): > 100 µM
TGI (NCI-H522 lung): 15 µM
TGI (786-0 renal): 25.6 µM
TGI (OVCAR-5 ovarian): 74.6 µM
TGI (SF-295 CNS): 56.5 µM
TGI (HL-60(TB) leukemia): 23 µM
TGI (M14 melanoma): 28.4 µM
TGI (SNB-75 CNS): 66.3 µM
TGI (A549 NSCLC): 76.4 µM
TGI (CAKI-1 renal): 33.4 µM
TGI (OVCAR-8 ovarian): 25.6 µM
TGI (SW-620 colon): 18.8 µM
TGI (SN12C renal): 25.4 µM
TGI (RXF-631 renal): 26.8 µM
TGI (IGROV1 ovarian): 51 µM
TGI (SF-268 CNS): 30.4 µM
TGI (HCC-2998 colon): 47.9 µM
TGI (MOLT-4 leukemia): 22.4 µM
TGI (DMS 114 small cell lung): 25.8 µM
TGI (KM12 colon): 43.7 µM
TGI (LOX IMVI melanoma): 27.8 µM
TGI (HT29 colon): 36.3 µM
TGI (HCT-15 colon): 27.9 µM
TGI (SR leukemia): 34 µM
TGI (HOP-62 NSCLC): > 100 µM
TGI (XF 498 CNS): 32.4 µM
TGI (NCI-H460 lung): 46.3 µM
TGI (HOP-92 NSCLC): 49.4 µM
TGI (RXF 393 renal): 31.7 µM

CSc1n[n+]2c(s1)SCCC2
TGI (LXFL 529 NSCLC): > 100 µM
TGI (HCT-116 colon): > 100 µM
TGI (MALME-3M melanoma): > 100 µM
TGI (UACC-62 melanoma): > 100 µM
TGI (COLO 205 colon): 48.3 µM
TGI (OVCAR-4 ovarian): > 100 µM
TGI (K-562 leukemia): > 100 µM
TGI (SNB-19 CNS): > 100 µM
TGI (CCRF-CEM leukemia): > 100 µM
TGI (TK-10 renal): > 100 µM
TGI (SNB-78 CNS): > 100 µM
TGI (UACC-257 melanoma): > 100 µM
TGI (SF-539 CNS): > 100 µM
TGI (SK-MEL-28 melanoma): > 100 µM
TGI (NCI-H23 lung): > 100 µM
TGI (DMS 273 small cell lung): > 100 µM
TGI (M19-MEL melanoma): > 100 µM
TGI (UO-31 renal): > 100 µM
TGI (DLD-1 colon): > 100 µM
TGI (HOP-18 NSCLC): > 100 µM
TGI (SK-MEL-5 melanoma): > 100 µM
TGI (U251 CNS): > 100 µM
TGI (ACHN renal): > 100 µM
TGI (NCI-H522 lung): > 100 µM
TGI (786-0 renal): > 100 µM
TGI (OVCAR-5 ovarian): > 100 µM
TGI (SF-295 CNS): > 100 µM
TGI (HL-60(TB) leukemia): > 100 µM
TGI (M14 melanoma): > 100 µM
TGI (SNB-75 CNS): > 100 µM
TGI (A549 NSCLC): 92.3 µM
TGI (CAKI-1 renal): > 100 µM
TGI (OVCAR-8 ovarian): > 100 µM
TGI (SW-620 colon): > 100 µM
TGI (SN12C renal): > 100 µM
TGI (RXF-631 renal): > 100 µM
TGI (IGROV1 ovarian): > 100 µM
TGI (SF-268 CNS): > 100 µM
TGI (HCC-2998 colon): > 100 µM
TGI (MOLT-4 leukemia): > 100 µM
TGI (DMS 114 small cell lung): > 100 µM
TGI (KM12 colon): > 100 µM
TGI (LOX IMVI melanoma): > 100 µM
TGI (HT29 colon): > 100 µM
TGI (SR leukemia): > 100 µM
TGI (HOP-62 NSCLC): > 100 µM
TGI (XF 498 CNS): > 100 µM
TGI (OVCAR-3 ovarian): > 100 µM
TGI (NCI-H460 lung): > 100 µM
TGI (HOP-92 NSCLC): > 100 µM
TGI (RXF 393 renal): > 100 µM

CCOC(=O)C(C)(C)Oc1ccc(/C=C/C(=O)c2ccc(Cl)cc2)cc1
TGI (RPMI-8226 leukemia): 53 µM
TGI (LXFL 529 NSCLC): 29.2 µM
TGI (HCT-116 colon): 31.5 µM
TGI (MALME-3M melanoma): 34.6 µM
TGI (UACC-62 melanoma): 44 µM
TGI (EKVX NSCLC): > 100 µM
TGI (COLO 205 colon): 53.2 µM
TGI (OVCAR-4 ovarian): 32.9 µM
TGI (K-562 leukemia): 82.2 µM
TGI (SK-MEL-2 melanoma): 39 µM
TGI (SNB-19 CNS): 37.7 µM
TGI (CCRF-CEM leukemia): 61.9 µM
TGI (TK-10 renal): > 100 µM
TGI (UACC-257 melanoma): 41.4 µM
TGI (A498 renal): 52.8 µM
TGI (SF-539 CNS): 34 µM
TGI (SK-MEL-28 melanoma): 34.7 µM
TGI (NCI-H23 lung): 37.1 µM
TGI (KM20L2 colon): 33.7 µM
TGI (DMS 273 small cell lung): 34.6 µM
TGI (M19-MEL melanoma): 38.2 µM
TGI (NCI-H226 lung): 70.5 µM
TGI (UO-31 renal): > 100 µM
TGI (DLD-1 colon): 27.9 µM
TGI (SK-MEL-5 melanoma): 28.3 µM
TGI (U251 CNS): 31.9 µM
TGI (786-0 renal): 30.9 µM
TGI (SF-295 CNS): 41.2 µM
TGI (HL-60(TB) leukemia): > 100 µM
TGI (M14 melanoma): 34.7 µM
TGI (SNB-75 CNS): 32.6 µM
TGI (A549 NSCLC): > 100 µM
TGI (OVCAR-8 ovarian): 41.3 µM
TGI (SW-620 colon): 28 µM
TGI (SN12C renal): 36 µM
TGI (RXF-631 renal): 38.5 µM
TGI (IGROV1 ovarian): 35.1 µM
TGI (SF-268 CNS): 37.1 µM
TGI (MOLT-4 leukemia): 76.8 µM
TGI (DMS 114 small cell lung): 36.8 µM
TGI (LOX IMVI melanoma): 30.7 µM
TGI (HT29 colon): 29.3 µM
TGI (HCT-15 colon): 34.3 µM
TGI (SR leukemia): > 100 µM
TGI (HOP-62 NSCLC): > 100 µM
TGI (XF 498 CNS): 39.1 µM
TGI (OVCAR-3 ovarian): 30.4 µM
TGI (NCI-H460 lung): > 100 µM
TGI (RXF 393 renal): 30.5 µM
